Source: the supplement of paper PMC10307832

Legend:
Assay in all cases: relative viability (nuclei count vs DMSO), 5 days (fraction); higher = more cells survive
[1] = compound: C1CC(C2=C(C1)C3=C(N2)C=CC(=C3)Cl)C(=O)N [Selisistat] + CC1(C)CCC(c2ccc(Cl)cc2)=C(CN2CCN(c3ccc(C(=O)NS(=O)(=O)c4ccc(N[C@H](CCN5CCOCC5)CSc5ccccc5)c(S(=O)(=O)C(F)(F)F)c4)cc3)CC2)C1 [Navitoclax] (partner 0.5 µM)
How it was run: (§1)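 Lung cancer cell lines were seeded in 1536-well plates and dosed by pin tool the next day, with either a single drug or a fixed anchor-drug dose combined with five library-drug doses (not always all listed) spaced in √10 steps. Five days later, one step fixed the cells and stained their nuclei (final 0.05% Triton X-100, 1% formaldehyde, 1 ug/ml Hoechst), and nuclei were counted on 4× images. Relative viability is the nuclei count in treated wells divided by the count in vehicle wells, and each value is the median of duplicate plates.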

[2] = compound: C1CC(C2=C(C1)C3=C(N2)C=CC(=C3)Cl)C(=O)N [Selisistat] + N=C(N)NC(=N)NCCc1ccccc1 [Phenformin] (partner 250 µM)
How it was run: as §1

[3] = compound: c1ccc2c(CCNc3ccc(Nc4ccncc4)cc3)c[nH]c2c1 [Serdemetan] + Cc1nc(NC(=O)N2CCC[C@H]2C(N)=O)sc1-c1ccnc(C(C)(C)C(F)(F)F)c1 [Alpelisib] (partner 2 µM)
How it was run: as §1

[4] = compound: c1ccc2c(CCNc3ccc(Nc4ccncc4)cc3)c[nH]c2c1 [Serdemetan] + Nc1nc2[nH]cc(CCc3ccc(C(=O)N[C@@H](CCC(=O)O)C(=O)O)cc3)c2c(=O)[nH]1 [Pemetrexed] (partner 0.2 µM)
How it was run: as §1

Cell Line: UMC-11
- relative viability ([1]; first compound 0.4 µM): 0.296
- relative viability ([1]; first compound 1.265 µM): 0.294
- relative viability ([1]; first compound 4 µM): 0.276
- relative viability ([1]; first compound 12.65 µM): 0.316
- relative viability ([1]; first compound 40 µM): 0.332
- relative viability ([2]; first compound 0.4 µM): 0.337
- relative viability ([2]; first compound 1.265 µM): 0.303
- relative viability ([2]; first compound 4 µM): 0.302
- relative viability ([2]; first compound 12.65 µM): 0.288
- relative viability ([2]; first compound 40 µM): 0.303
- relative viability ([3]; first compound 0.04 µM): 0.914
- relative viability ([3]; first compound 0.1265 µM): 0.988
- relative viability ([3]; first compound 0.4 µM): 1.01
- relative viability ([3]; first compound 1.265 µM): 0.751
- relative viability ([3]; first compound 4 µM): 0.769
- relative viability ([4]; first compound 0.04 µM): 0.776
- relative viability ([4]; first compound 0.1265 µM): 0.718
- relative viability ([4]; first compound 0.4 µM): 0.689
- relative viability ([4]; first compound 1.265 µM): 0.666
- relative viability ([4]; first compound 4 µM): 0.586
